According to ChEMBL document CHEMBL1201862, “PubChem BioAssay data set” (2004):
Activity calls are given as the source filed them.

Legend:
[1] = target: T1, Short transient receptor potential channel 4 (Mus musculus, UniProt Q9QUQ5); experiment: mouse TRPC4 channel activators, dose response, cell-based, HEK293 TRPC4/mu-opioid, Fluo-4 calcium (AID 434937); type: functional
T1 sequence (Q9QUQ5 whole entry): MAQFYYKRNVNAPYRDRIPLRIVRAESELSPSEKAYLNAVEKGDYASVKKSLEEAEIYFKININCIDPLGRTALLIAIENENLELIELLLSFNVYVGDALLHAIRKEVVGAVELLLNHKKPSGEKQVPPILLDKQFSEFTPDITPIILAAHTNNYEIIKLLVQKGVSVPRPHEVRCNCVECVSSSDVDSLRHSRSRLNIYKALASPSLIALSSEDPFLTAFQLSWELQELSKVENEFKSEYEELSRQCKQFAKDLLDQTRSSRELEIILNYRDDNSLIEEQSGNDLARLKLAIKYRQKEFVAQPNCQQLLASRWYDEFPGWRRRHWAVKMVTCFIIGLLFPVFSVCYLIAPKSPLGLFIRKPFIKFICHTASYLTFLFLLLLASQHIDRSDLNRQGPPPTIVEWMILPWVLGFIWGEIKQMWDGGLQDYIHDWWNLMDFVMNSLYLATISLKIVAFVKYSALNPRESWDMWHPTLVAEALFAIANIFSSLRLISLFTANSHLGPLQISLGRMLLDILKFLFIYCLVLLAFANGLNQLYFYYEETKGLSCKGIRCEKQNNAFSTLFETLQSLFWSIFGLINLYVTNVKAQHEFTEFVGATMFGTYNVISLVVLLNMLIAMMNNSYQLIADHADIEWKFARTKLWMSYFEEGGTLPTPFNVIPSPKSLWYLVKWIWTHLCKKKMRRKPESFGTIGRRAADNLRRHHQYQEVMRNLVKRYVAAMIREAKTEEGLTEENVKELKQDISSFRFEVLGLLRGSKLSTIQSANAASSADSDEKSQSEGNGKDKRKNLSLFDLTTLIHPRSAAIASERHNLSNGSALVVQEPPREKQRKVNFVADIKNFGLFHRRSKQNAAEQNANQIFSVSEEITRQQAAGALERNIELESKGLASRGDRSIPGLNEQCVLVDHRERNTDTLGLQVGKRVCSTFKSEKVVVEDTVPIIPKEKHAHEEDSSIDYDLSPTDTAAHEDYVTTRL

Protein skinhead-1 = target: T2, Protein skinhead-1 (Caenorhabditis elegans, UniProt P34707); type: functional
T2 sequence (P34707 whole entry): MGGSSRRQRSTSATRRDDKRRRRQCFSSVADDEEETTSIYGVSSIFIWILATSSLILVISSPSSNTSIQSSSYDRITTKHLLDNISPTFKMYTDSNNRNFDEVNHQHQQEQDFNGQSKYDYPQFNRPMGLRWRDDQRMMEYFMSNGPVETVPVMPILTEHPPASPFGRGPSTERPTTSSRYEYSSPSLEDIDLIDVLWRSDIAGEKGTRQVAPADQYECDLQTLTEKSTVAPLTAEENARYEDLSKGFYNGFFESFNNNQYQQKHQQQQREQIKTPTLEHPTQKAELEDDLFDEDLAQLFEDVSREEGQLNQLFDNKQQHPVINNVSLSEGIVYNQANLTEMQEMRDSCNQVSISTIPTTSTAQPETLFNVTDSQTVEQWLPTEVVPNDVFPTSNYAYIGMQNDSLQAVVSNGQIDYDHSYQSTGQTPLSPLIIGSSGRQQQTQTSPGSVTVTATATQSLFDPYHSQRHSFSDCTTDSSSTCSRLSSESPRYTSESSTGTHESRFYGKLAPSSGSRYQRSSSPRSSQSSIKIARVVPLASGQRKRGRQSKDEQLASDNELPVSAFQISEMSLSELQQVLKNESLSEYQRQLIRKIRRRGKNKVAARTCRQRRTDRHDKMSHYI

[2] = intracellular Trypanosoma cruzi inhibitors in host cells – cell-based, plate reader, cherry-pick samples, set 3, dose response (AID 651818); type: functional;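 also: compounds incubated with infected cells for about four days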
[3] = target: T3, DNA repair protein RAD52 homolog (Homo sapiens, UniProt P43351); type: functional, biochemical
T3 sequence (P43351 whole entry): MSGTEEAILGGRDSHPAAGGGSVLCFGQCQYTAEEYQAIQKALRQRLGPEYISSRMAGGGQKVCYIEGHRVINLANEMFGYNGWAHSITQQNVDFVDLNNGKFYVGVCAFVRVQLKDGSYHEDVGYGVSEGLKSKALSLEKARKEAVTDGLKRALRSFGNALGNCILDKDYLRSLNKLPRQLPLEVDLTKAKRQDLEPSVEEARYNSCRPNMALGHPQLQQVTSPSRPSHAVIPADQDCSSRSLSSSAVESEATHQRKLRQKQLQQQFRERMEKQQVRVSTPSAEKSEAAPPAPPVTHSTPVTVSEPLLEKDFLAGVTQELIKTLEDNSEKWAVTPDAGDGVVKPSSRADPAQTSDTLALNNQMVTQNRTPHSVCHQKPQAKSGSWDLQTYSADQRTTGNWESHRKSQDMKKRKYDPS

P388 = experiment: cells; type: functional; conditions: Mus musculus, P388
P388/ADR = experiment: cells; type: functional; conditions: Mus musculus
SN12K1 = experiment: cells; type: functional; conditions: Homo sapiens, SN12K1
[4] = MC4R antagonists, dose response, counter-screen for LGR2 antagonist project, cell-based, plate reader, cherry pick (AID 743444); type: functional;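 also: transfected HEK 293 cells stimulated with alpha-MSH peptide; potency of inhibitors of the alpha-MSH evoked signal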
[5] = inhibitors of SNCA 5'UTR-driven reporter translation, confirmation, H4 neuroglioma cells, luminescence (AID 1988); type: functional, cell-based
[6] = LGR2 antagonists, dose response, cell-based, HEK293, CRE-luciferase reporter, cherry pick, set 2 (AID 743343); type: functional;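 also: transfected cells were stimulated with diluted bursicon conditioned medium after compound addition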
[7] = target: T4, Heat shock factor protein 1 (Mus musculus, UniProt P38532); experiment: inhibition of MG132-induced HSE-luciferase signal, confirmation, cell-based, NIH3T3, luminescence, dose retest (AID 2382); type: functional;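 also: NIH3T3 fibroblasts with HSF1-driven luciferase reporter stressed by proteasome inhibitor MG132; luminescence from HSF1-driven luciferase expression after 8 hours of MG132 stress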
T4 sequence (P38532 whole entry): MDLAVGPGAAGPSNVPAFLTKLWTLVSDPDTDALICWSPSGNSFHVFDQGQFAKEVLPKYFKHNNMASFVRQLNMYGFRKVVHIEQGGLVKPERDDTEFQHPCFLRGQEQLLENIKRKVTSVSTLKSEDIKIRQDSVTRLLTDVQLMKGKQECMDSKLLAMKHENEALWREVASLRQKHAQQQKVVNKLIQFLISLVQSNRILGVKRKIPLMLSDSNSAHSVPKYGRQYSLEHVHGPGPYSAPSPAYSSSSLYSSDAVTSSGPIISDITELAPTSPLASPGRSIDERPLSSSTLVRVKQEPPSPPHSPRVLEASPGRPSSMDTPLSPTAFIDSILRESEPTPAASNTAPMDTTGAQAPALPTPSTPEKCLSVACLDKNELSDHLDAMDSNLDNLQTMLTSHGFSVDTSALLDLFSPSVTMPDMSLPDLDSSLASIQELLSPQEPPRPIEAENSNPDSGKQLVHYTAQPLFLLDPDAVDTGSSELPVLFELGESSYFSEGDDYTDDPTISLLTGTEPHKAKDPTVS

[8] = inhibitors of firefly luciferase expression or activity, dose response, H4 neuroglioma cells, luminescence (AID 1990); type: functional, cell-based
[9] = A549 cell cytotoxicity, dose response, cytotoxicity control, plate reader, cherry-pick, antagonist series (AID 743412); type: functional, cell-based
[10] = Luminescence Cell-Based Dose Response HTS to Identify Inhibitors of 5'UTR Stem-Loop Driven Prion Protein mRNA Translation in H4 Neuroglioblastoma Cells. [Related pubchem assays: 1827 (Project Summary), 1813 (Primary HTS)]; type: functional
[11] = target: Luciferin 4-monooxygenase (Photinus pyralis, UniProt P08659); experiment: firefly luciferase enzyme inhibitors, dose response, biochemical, luminescence (AID 1891)
H9c2 = experiment: cells; type: functional, cell-based; conditions: Rattus norvegicus, H9c2, Myocardium;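 also: confirmatory concentration-response retest of ultra-high-throughput screening hits for modulation of myocardial damage; cell death induced by hydrogen peroxide oxidative stress; compound pretreatment for 60 min then peroxide exposure for 2 h; potency is for protecting the cells against peroxide damage rather than for killing them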
[12] = Luminescence Cell-Based Dose Confirmation HTS to Identify Inhibitors of Platelet Dense Granule Release. [Related pubchem assays: 1663 (Primary HTS), 1678 (Summary of Project)]; type: functional
[13] = target: Glyceraldehyde-3-phosphate dehydrogenase (Homo sapiens, UniProt P04406)
H4 = experiment: Luminescence Cell-Based Dose Response HTS to Identify Activators of 5'UTR Stem-Loop Driven Prion Protein mRNA Translation in H4 Neuroglioblastoma Cells. [Related pubchem assays: 1829 (Project Summary), 1814 (Primary HTS)]; type: functional; conditions: Homo sapiens
[14] = Luminescence Cell-Based Dose Response HTS to Identify Activators of Luciferase Translation or Activity in H4 […] Cells. [Related pubchem assays: 1829 (Project Summary), 1814 (Primary HTS)]; type: functional
[15] = Luminescence Cell-Based Dose Confirmation HTS to Identify Activators of 5'UTR Stem-Loop Driven Alpha-Synuclein mRNA Translation in H4 Neuroglioblastoma Cells. [Related pubchem assays: 1829 (Project Summary), 1814 (Primary HTS)]; type: functional

Glyceraldehyde-3-phosphate dehydrogenase, sequence (P04406 whole entry): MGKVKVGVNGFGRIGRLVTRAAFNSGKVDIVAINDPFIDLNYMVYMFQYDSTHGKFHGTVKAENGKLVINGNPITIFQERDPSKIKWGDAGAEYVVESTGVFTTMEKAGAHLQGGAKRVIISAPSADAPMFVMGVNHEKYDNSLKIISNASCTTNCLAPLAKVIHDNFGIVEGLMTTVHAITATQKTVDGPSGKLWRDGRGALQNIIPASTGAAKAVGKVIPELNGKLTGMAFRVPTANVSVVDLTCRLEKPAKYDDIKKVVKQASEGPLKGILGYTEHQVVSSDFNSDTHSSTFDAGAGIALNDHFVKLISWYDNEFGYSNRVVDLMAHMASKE
Luciferin 4-monooxygenase, sequence (P08659 whole entry): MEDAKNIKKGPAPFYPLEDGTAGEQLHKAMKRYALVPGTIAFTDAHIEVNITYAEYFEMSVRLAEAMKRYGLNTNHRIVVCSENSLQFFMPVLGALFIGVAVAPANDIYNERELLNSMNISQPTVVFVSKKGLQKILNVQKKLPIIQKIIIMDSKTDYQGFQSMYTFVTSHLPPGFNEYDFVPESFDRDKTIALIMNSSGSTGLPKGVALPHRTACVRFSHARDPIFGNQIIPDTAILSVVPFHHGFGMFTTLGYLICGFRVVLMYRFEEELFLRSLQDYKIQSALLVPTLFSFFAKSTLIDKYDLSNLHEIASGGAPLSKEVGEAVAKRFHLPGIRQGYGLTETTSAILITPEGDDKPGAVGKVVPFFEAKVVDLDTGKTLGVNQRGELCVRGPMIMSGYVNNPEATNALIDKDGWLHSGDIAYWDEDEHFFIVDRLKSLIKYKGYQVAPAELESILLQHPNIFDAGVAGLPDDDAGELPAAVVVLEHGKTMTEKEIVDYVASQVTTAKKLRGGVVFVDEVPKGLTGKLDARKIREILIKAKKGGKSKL

O=C(N/N=C/c1ccco1)C1COc2ccccc2O1 (stereo not drawn)
EC50 [1]: 4.22 µM (active)

Cc1cc(C(=O)CSc2nnc(C3COc4ccccc4O3)n2C)c(C)n1-c1ccc(F)cc1 (stereo not drawn)
IC50 (Protein skinhead-1): > 100 µM (inactive)

COc1ccc(NC(=O)Nc2ccc3c(c2)C(=O)N([C@@H](C)CO)C[C@H](C)[C@@H](CN(C)Cc2ccc(-c4ccccc4)cc2)O3)cc1
AC50 [2]: 5.13 µM (active)

Clc1ccc(Cc2noc(-c3cccs3)n2)cc1
IC50 (Protein skinhead-1): 4.34 µM (active)

CN(C)CCCNC(=O)C(=O)Nc1cc2c3c(c1)CC(=O)N3CCC2
AC50 [3]: 15.4 µM (active)

CC(=O)c1ccc2c(c1)c1c(C)c3c[n+](C)ccc3c(C)c1n2C
GI50 (P388): 0.634 µM (active) | GI50 (P388/ADR): 3 µM (inactive) | GI50 (SN12K1): 1.34 µM (inactive)

CN(C)CC(CC1=C(CC(CN(C)C)N(C)C)CCC1)N(C)C (stereo not drawn)
GI50 (P388): > 100 µM (inactive) | GI50 (P388/ADR): > 100 µM (inactive) | GI50 (SN12K1): > 100 µM (inactive)

CN1CCN(c2ccc(NC(=O)N3CCc4ccccc43)cc2)CC1
AC50 [4]: 4.38 µM (active) | EC50 [5]: > 120 µM (not active) | AC50 [6]: 2.2 µM (active) | EC50 [7]: < 0.16 µM (active) | EC50 [8]: 6.81 µM (inconclusive) | AC50 [9]: > 52 µM (inactive) | EC50 [10]: 9.49 µM (active)

Clc1ccccc1-c1nc(N/N=C/c2cccnc2)c2ccccc2n1
EC50 [11]: > 112 µM (not active) | IC50 (H9c2): > 79 µM (inactive) | EC50 [12]: > 112 µM (not active)

COc1ccc(S(=O)(=O)N2CC(C(=O)O)Oc3ccccc32)cc1 (stereo not drawn)
IC50 (Protein skinhead-1): > 100 µM (inactive)

Fc1ccc(-c2csc(N3CCSCC3)n2)cc1
IC50 (Protein skinhead-1): > 100 µM (inactive)

COc1ccc(CN(C(=O)c2oc3ccccc3c2C)C2CCS(=O)(=O)C2)cc1 (stereo not drawn)
IC50 (Protein skinhead-1): > 100 µM (inactive)

COc1cccc2c1C(=O)c1c(O)c3c(c(O)c1C2=O)CC(O)(C(C)=O)CC3O (stereo not drawn)
GI50 (P388): 1.09 µM (active) | GI50 (P388/ADR): 1.81 µM (inactive) | GI50 (SN12K1): 2.07 µM (inactive)

N=C(Nc1ccccc1)Nc1ccccc1
EC50 [1]: 10.6 µM (active)

C[C@H]1CN([C@@H](C)CO)C(=O)Cc2cc(NS(=O)(=O)c3ccccc3)ccc2O[C@@H]1CN(C)Cc1ccc(-c2ccccc2)cc1
AC50 [2]: 5.32 µM (active)

CCOc1ccc(S(=O)(=O)Nc2ccc(O)c(C(=O)O)c2)cc1
IC50 [13]: > 100 µM (not active)

O=C(NCCc1ccccc1Cl)c1ccc2nc3ccccc3c(=O)n2c1
EC50 (H4): > 120 µM (not active) | IC50 (H9c2): > 79 µM (inactive) | EC50 [14]: > 120 µM (not active) | EC50 [15]: 10.2 µM (active)

C=C1C(=O)OCC2C(C(=O)O)=CC3C(C)C(C)=CC123 (stereo not drawn)
GI50 (P388): 5.21 µM (inactive) | GI50 (P388/ADR): 5.77 µM (inactive) | GI50 (SN12K1): 9.08 µM (inactive)

Cc1cc(C)c(NS(=O)(=O)c2ccc(O)c(C(=O)O)c2)c(C)c1
IC50 [13]: > 100 µM (not active)

CN(C)C(=O)/C=C/c1c[nH]c(=O)[nH]c1=O
GI50 (P388): > 281 µM (inactive) | GI50 (P388/ADR): > 281 µM (inactive) | GI50 (SN12K1): > 500 µM (inactive)

COc1ccc(CN(C)C[C@H]2Oc3c(NC(=O)Nc4ccc(C(F)(F)F)cc4)cccc3C(=O)N([C@H](C)CO)C[C@@H]2C)cc1
AC50 [2]: 3.26 µM (active)

CCC1CCCCN1S(=O)(=O)c1ccc(C(=O)N(CCCN(C)C)c2nc3cc4c(cc3s2)OCO4)cc1 (stereo not drawn)
EC50 [1]: 6.68 µM (active)

COc1ccccc1N1CCN(C(c2cccs2)C(C)NC(=O)c2cccs2)CC1 (stereo not drawn)
EC50 [1]: 0.335 µM (active)

CC1OC(O[C@@H]2C=C3CC[C@@H]4[C@H](CC[C@]5(C)[C@@H](c6ccc(=O)oc6)CC[C@]45O)[C@@]3(C)CC2)C(O)C(O)C1O (stereo partly drawn)
GI50 (P388): 20.7 µM (inactive) | GI50 (P388/ADR): 47.1 µM (inactive)

C[C@@H]1CN([C@@H](C)CO)C(=O)c2cccc(NC(=O)c3ccc(-c4nccs4)cc3)c2O[C@@H]1CN(C)Cc1ccc(C(=O)Nc2ccccc2N)cc1
AC50 [2]: 1.61 µM (active)

C[C@@H]1CN([C@H](C)CO)C(=O)c2cccc(NS(=O)(=O)c3ccc(Cl)cc3)c2O[C@H]1CN(C)Cc1ccc(C(=O)Nc2ccccc2N)cc1
AC50 [2]: 1.77 µM (active)

C[C@@H]1CCCCO[C@H](CN(C)Cc2ccc3c(c2)OCO3)[C@@H](C)CN([C@H](C)CO)C(=O)c2cc(NC(=O)Nc3ccc(C(F)(F)F)cc3)ccc2O1
AC50 [2]: 2.16 µM (active)

C[C@H](CO)N1C[C@H](C)[C@@H](CN(C)S(=O)(=O)c2ccc(Cl)cc2)Oc2c(cccc2N(C)C)C1=O
AC50 [2]: 10.1 µM (active)

Nc1ccc(/N=N/c2ccc(/C=C/c3ccc(/N=N/c4ccc(N)c5ccc(S(=O)(=O)O)cc45)cc3S(=O)(=O)O)c(S(=O)(=O)O)c2)c2cc(S(=O)(=O)O)ccc12
GI50 (P388): > 100 µM (inactive) | GI50 (P388/ADR): > 100 µM (inactive) | GI50 (SN12K1): > 100 µM (inactive)
